The values below are quoted from earlier work in patent publication US20140234397A1 (priority 2013, published 2014).

SMILES strings stand for the structures. Read-outs that look alike come from different tables or passages of the source.

For data set [1] the following is noted: rat; for removal of toxin: radio-tagged metal (CO60) removed from the liver.
For data set [2] the following is noted: humans.

On to `N[C@@H](CCC(=O)N[C@@H](CS)C(=O)NCC(=O)O)C(=O)O` [Plain glutathione, glutathione], for which, in data set [1] (radio-tagged metal (CO60) in the liver), the toxin remaining is given as 100%. The figures for the removal of toxin in data set [1] and in data set [1] (listed as Intravenous glutathione) were 0% and 64%, respectively. Moreover, the “absorption after oral ingestion” value in data set [2] was “not absorbed”.
